By Kd is commonly meant a measure of binding affinity in units of concentration.

Data set [1] is described as follows: radiochemical stability in vehicle by HPLC. The format is physicochemical. As to conditions: room temperature, vehicle physiologic serum/ethanol 87.5/12.5. As to the method:
By this method, the final radiolabeled compound can be obtained with a radiochemical purity greater than 98% in 100-110 min with a yield that can reach 25% (decay corrected). It has been noticed that an uncompleted evaporation of the solvents used for the purification of [^18F]Fluoroethyltosylate hampers the second step and conducts to lower yields. Specific activity of productions was in the range of […]. The radiolabeled compound is stable in the conditions of formulation as radiochemical purity still greater than 95% 20 h after production with a storage at room temperature.
After radiosynthesis, the stability of the radiotracer was evaluated by HPLC both in its vehicle and in rat plasma. Compound (I) was formulated in physiologic serum/ethanol with the respective proportion 87.5/12.5 (v/v). A mixture of compounds (I) (i.e. radiolabelled) and (Ia) (i.e. cold analogue) was stable for up to 20 hours at room temperature in its vehicle, only one peak being detected at the expected retention time. In rat plasma two peaks were detected: one at 3.15 minutes and one at 8.02 minutes (corresponding to a mixture of compounds (I) and (Ia)) after an incubation at +37° C. for 4 hours.

The target in data set [2] is T1, NCI-H441 tumor cell homogenates (activated EGFR) (Homo sapiens, UniProt P00533).
T1 construct: endogenous in cells; host or cells: NCI-H441
T1 sequence (P00533 25-1210): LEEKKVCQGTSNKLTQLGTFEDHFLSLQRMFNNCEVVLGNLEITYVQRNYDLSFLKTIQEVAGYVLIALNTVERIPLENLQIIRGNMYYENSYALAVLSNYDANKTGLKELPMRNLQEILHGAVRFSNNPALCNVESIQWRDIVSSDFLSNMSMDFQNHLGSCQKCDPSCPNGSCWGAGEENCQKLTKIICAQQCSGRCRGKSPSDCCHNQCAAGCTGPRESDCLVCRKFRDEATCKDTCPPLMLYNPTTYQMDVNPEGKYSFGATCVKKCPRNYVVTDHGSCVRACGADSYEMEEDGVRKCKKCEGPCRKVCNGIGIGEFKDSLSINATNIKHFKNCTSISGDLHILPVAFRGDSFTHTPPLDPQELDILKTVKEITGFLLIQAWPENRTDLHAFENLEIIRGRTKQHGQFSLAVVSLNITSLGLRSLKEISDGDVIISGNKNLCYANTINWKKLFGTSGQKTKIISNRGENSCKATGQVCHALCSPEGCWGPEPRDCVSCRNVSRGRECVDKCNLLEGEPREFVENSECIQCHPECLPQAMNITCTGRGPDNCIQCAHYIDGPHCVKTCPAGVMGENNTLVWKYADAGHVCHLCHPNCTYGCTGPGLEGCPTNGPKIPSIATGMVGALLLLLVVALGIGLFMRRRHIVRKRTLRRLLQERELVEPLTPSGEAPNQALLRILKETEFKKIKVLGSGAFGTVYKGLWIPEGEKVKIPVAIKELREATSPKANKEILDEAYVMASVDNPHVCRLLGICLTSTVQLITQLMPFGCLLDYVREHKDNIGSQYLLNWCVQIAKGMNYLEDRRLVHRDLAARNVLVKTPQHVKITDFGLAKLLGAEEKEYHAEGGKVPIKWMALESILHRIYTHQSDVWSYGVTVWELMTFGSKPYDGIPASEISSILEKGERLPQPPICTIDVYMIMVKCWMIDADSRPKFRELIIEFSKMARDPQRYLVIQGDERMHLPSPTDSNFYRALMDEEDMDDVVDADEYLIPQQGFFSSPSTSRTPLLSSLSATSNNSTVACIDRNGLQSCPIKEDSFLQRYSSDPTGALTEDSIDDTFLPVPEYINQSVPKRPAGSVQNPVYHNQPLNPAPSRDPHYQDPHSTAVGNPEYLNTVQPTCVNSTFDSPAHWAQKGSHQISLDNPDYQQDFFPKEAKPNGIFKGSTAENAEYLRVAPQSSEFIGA
The experiment in a line: binding competition on tumor cell homogenates. As to the method:
(§1) FIG. 1: Binding affinity constant of Compound (II) determined in competition experiments on NCI-H3255 (A) and NCI-H441 (B) cell line extracts. NCI-H3255 and NCI-H441 cell line extracts were incubated at room temperature for 90 min with Compound (II) (0.5-0.7 nM) and with increasing concentrations of Compound (IIa) (0.05 nM to 10 μM).
(§2) The binding affinity of Compound (I) and the number of binding sites were first evaluated on NCI-H3255 and NCI-H441 tumor cell homogenates (FIG. 1). […] The number of binding sites was of the same order of magnitude (6.1±0.5×10^9 sites/μg protein).

Data set [3] deals with T2, NCI-H3255 tumor cell homogenates (activated EGFR) (Homo sapiens, UniProt P00533, L858R).
T2 construct: endogenous in cells; host or cells: NCI-H3255
T2 sequence (P00533 25-1210 L858R): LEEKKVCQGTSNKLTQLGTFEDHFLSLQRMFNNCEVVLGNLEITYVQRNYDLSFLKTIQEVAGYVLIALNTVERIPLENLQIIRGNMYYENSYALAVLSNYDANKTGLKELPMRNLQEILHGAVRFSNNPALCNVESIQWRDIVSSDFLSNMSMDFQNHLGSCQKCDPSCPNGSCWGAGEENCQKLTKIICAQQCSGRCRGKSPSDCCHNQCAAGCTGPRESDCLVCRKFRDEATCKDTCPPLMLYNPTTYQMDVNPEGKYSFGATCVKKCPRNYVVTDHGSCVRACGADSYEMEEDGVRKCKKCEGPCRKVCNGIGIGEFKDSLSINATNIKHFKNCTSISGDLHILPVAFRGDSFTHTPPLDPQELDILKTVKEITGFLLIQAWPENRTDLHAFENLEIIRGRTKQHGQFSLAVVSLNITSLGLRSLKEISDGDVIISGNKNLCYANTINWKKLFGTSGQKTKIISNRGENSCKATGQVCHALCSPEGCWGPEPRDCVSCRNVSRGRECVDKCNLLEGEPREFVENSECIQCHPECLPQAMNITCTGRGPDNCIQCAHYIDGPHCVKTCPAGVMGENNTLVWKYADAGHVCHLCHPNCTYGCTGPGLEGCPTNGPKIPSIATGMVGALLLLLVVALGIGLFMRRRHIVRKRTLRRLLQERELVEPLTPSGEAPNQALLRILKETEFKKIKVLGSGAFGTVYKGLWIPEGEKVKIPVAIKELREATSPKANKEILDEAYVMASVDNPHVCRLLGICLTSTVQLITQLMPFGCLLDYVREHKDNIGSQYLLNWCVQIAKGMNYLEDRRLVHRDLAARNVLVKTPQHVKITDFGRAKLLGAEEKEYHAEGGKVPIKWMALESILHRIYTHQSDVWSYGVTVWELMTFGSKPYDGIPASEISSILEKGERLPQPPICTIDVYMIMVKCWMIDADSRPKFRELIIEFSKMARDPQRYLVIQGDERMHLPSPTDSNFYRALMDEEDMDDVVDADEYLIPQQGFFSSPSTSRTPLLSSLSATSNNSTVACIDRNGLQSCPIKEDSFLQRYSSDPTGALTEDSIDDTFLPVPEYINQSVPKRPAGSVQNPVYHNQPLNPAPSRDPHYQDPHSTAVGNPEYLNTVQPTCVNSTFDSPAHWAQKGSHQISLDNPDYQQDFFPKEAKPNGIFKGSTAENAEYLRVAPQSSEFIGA
As to the kind of experiment: binding competition on tumor cell homogenates. As to the method:
as §1, §2

Data set [4] can be described thus: biodistribution in tumor-bearing Nude rats (ex vivo gamma counting). As to the method:
Dynamic PET scan imaging and ex vivo gamma counting were performed on three cancer xenografts (NCI-H441, NCI-H3255, NCI-H1975) in Nude rats. Xenografts were initiated in athymic, Hsd:RH-Foxnlrnu rats (Harlan, The Netherlands) by subcutaneous injection of 2×10^7 cells in 200 μL RPMI 1640 in the left and right flanks. NCI-H3255 tumor cells were injected in the right flank and NCI-H441 or NCI-H1975 in the left flank. Each study consisted in two experiments on 18 or 19 rats, for a total of 113 rats. Injection of NCI-H3255 cells was performed on DO, 24 to 72 hours after a whole-body irradiation with a […] (5 Gy, ^60Co, BioMep SARL, Bretenières, France). […]
The radiotracer solution was diluted in NaCl 0.9% to prepare a solution of activity 4-6 MBq (gamma-counting experiments) or 25-35 MBq (PET imaging experiments) in a volume of 300-400 or 600-800 μL, respectively. The radioactivity in the syringe was measured before and after tracer injection to determine the injected dose (ID) to animals. […]
For ex vivo gamma counting, after the determined uptake period or after imaging, rats were euthanized by decapitation, and the following organs were harvested and weighed: tumor, kidneys, blood, liver, heart, tail, thigh muscle, lungs, spleen and skin. Tracer distribution was assessed by determining ^18F content in each tissue with a gamma-well counter (PerkinElmer 2480 Wizard2 3). […]

For a further data set, the system named is NCI-H3255 tumors. The experiment in a line: tumor uptake in xenograft-bearing Nude rats. The data set is classed as in vivo. As to the method:
(§3) Dynamic PET scan imaging and ex vivo gamma counting were performed on three cancer xenografts (NCI-H441, NCI-H3255, NCI-H1975) in Nude rats. Xenografts were initiated in athymic, Hsd:RH-Foxnlrnu rats (Harlan, The Netherlands) by subcutaneous injection of 2×10^7 cells in 200 μL RPMI 1640 in the left and right flanks. NCI-H3255 tumor cells were injected in the right flank and NCI-H441 or NCI-H1975 in the left flank. Each study consisted in two experiments on 18 or 19 rats, for a total of 113 rats. Injection of NCI-H3255 cells was performed on DO, 24 to 72 hours after a whole-body irradiation with a […] (5 Gy, ^60Co, BioMep SARL, Bretenières, France). […] Tumors were grown until a target volume of 500-1500 mm^3 for both tumors was reached, whenever possible. All procedures using animals were approved by the Animal Care and Use Committee of Oncodesign (CNREEA agreement No 91).
(§4) The radiotracer solution was diluted in NaCl 0.9% to prepare a solution of activity 4-6 MBq (gamma-counting experiments) or 25-35 MBq (PET imaging experiments) in a volume of 300-400 or 600-800 μL, respectively. The radioactivity in the syringe was measured before and after tracer injection to determine the injected dose (ID) to animals. Rats were anesthetized with inhaled isoflurane (2% in air) for compound injection and throughout the course of image acquisition. After compound injection, rats were allowed to wake up and put back in their cage for an uptake period ranging from 20 to 120 minutes depending on the experiment.
(§5) For ex vivo gamma counting, after the determined uptake period or after imaging, rats were euthanized by decapitation, and the following organs were harvested and weighed: tumor, kidneys, blood, liver, heart, tail, thigh muscle, lungs, spleen and skin. Tracer distribution was assessed by determining ^18F content in each tissue with a gamma-well counter (PerkinElmer 2480 Wizard2 3). Counting data are reported as % ID per gram of tissue (% ID/g). Once radioactivity in organs was measured, some samples were prepared for immunohistochemistry.
(§6) For imaging experiments, rats were positioned prone in a dedicated rat imaging chamber (Minerve, France). Their body temperature was maintained by a flow of warm air through the structure of the imaging bed. PET imaging was performed on a microPET eXplore Vista CT (General Electric Healthcare) system. The Vista system, equipped with 36 dual-layer LYSO/GSO phoswich detector modules, has an effective axial/transaxial field of view of 4.8/6.7 cm. The spatial resolution is <2 mm in all directions and in the whole field of view. The sensitivity is above 2.5% in the whole field of view. After a scout image to adjust the position of the field of view, a CT scan was acquired (140 μA, 40 kV). […]

Another data set relates to NCI-H1975 tumors. The experiment in a line: tumor uptake in xenograft-bearing Nude rats. Particulars: NCI-H1975, at 180 min. The format is in vivo. As to the method:
as §3, §4, §5, §6

The next data set relates to NCI-H441 tumors. The experiment in a line: tumor uptake in xenograft-bearing Nude rats. Particulars: NCI-H441, at 180 min. The data set is classed as in vivo. As to the method:
as §3, §4, §5, §6

[5] abbreviates: read-out: binding affinity (Kd).

`CC(C)C1NC(=O)Cc2ccc(Cl)cc2Nc2ncnc3cc(OCC[18F])c(cc23)OCCCNC1=O` (centres unmarked) [Compound (I)] had a Radiochemical stability in data set [1] of over 20 h. The “number of binding sites” value in data set [2] is recorded as 6.1±0.5×10^9 sites/μg protein; in data set [3], 9.1±3.1×10^9 sites/μg protein. Moreover, the dissociation constant (Kd) in data set [2] (setting [5]) came to 25.8 ± 11.1 nM; in data set [3] (setting [5]) it was 23.8 ± 9 nM. Further, the uptake in blood in data set [4] (after 45 min) is under 0.05 % ID/g. In data set [4] (at 90 min), the “absolute uptake in tumors” value is given as under 0.5 % ID/g. Besides, the “normalized uptake (tumor over muscle)” value in the data set on NCI-H3255 tumors (NCI-H3255, at 180 min) worked out at 12; in the data set with NCI-H1975 tumors, 3.6; in the data set on NCI-H441 tumors, 2.6. Besides, the “uptake in NCI-H3255 tumors” value in the data set with NCI-H3255 tumors (stable between 90 min and 180 min) is on record as “around 0.2 % ID/g”.
